Assay results from US7763615B2, “Ecteinascidin analogs for use as antitumour agents” (priority 2001, dated 2010).
Read-outs that look alike come from different tables or passages of the source.

Legend:
Assay in all cases: cells
Type in all cases: cell-based
SK-BR3 = conditions: Homo sapiens
How it was run: (§1)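 Continuous 48 h drug exposure of attached human cancer cells (5×10^3/well, RPMI 1640, 10% FBS), doses 10 to 10^−8 μg/ml. Endpoint is SRB staining after TCA fixation, read at 490 nm. GI, TGI and LC calculated from triplicate means.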

LOVO-DOX = conditions: Homo sapiens
How it was run: as §1

DU145 = conditions: Homo sapiens
How it was run: as §1

PANC-1 = conditions: Homo sapiens
How it was run: as §1

HT29 = conditions: Homo sapiens, HT-29, 48 h
How it was run: as §1

IGROV = conditions: Homo sapiens
How it was run: as §1

HELA = conditions: for CC50 / GI50: Homo sapiens
How it was run: as §1

LNCAP = conditions: Homo sapiens
How it was run: as §1

A549 = conditions: Homo sapiens, A549, 48 h; for GI50: read-out: GI50; for IC (TGI): read-out: TGI
How it was run: as §1

HELA-APL = conditions: for GI50 / CC50: Homo sapiens
How it was run: as §1

LOVO = conditions: Homo sapiens
How it was run: as §1

IGROV-ET = conditions: Homo sapiens
How it was run: as §1

K562 = conditions: Homo sapiens
How it was run: as §1

MEL-28 = conditions: Homo sapiens
How it was run: as §1

[1] = SK-BR-3, 48 h, SK-BR3, 48 hours exposure, SRB
[2] = 48 h, LOVO-DOX, 48 hours exposure, SRB
[3] = DU-145, 48 h, DU145, 48 hours exposure, SRB
[4] = PANC-1, 48 h, PANC-1, 48 hours exposure, SRB
[5] = LNCaP, 48 h, 48 hours exposure, SRB
[6] = HELA-APL, 48 hours exposure, SRB
[7] = LoVo, 48 h, 48 hours exposure, SRB
[8] = 48 h, IGROV-ET, 48 hours exposure, SRB
[9] = K562, 48 h, K562, 48 hours exposure, SRB
[10] = SK-MEL-28, 48 h, MEL-28, 48 hours exposure, SRB

COc1c(C)cc2c(c1O)[C@@H]1C3[C@@H]4SC[C@]5(NCCc6c5[nH]c5ccccc65)C(=O)COC[C@@H](c5c6c(c(C)c(OC(=O)C(F)(F)C(F)(F)C(F)(F)F)c54)OCO6)N3[C@@H](C#N)[C@H](C2)N1C (stereo partly drawn) [Compound 51]
GI50 (SK-BR3; [1]): 39.8 nM
IC (TGI) (SK-BR3; [1]): 99.3 nM
CC50 (SK-BR3; SK-BR-3, 48 h, read-out: LC50): 3110 nM
GI50 (LOVO-DOX; [2]): 381 nM
IC (TGI) (LOVO-DOX; [2]): 3090 nM
CC50 (LOVO-DOX; 48 h, read-out: LC50): 11200 nM
GI50 (DU145; [3]): 48.3 nM
IC (TGI) (DU145; [3]): 323 nM
CC50 (DU145; DU-145, 48 h, read-out: LC50): 11200 nM
GI50 (PANC-1; [4]): 41.9 nM
IC (TGI) (PANC-1; [4]): 133 nM
CC50 (PANC-1; PANC-1, 48 h, read-out: LC50): 2000 nM
GI50 (HT29; HT29, 48 hours exposure, SRB): 38.2 nM
IC (TGI) (HT29; HT29, 48 hours exposure, SRB): 1310 nM
CC50 (HT29; read-out: LC50, HT29, 48 hours exposure, SRB): 11100 nM
GI50 (IGROV; 48 h, 48 hours exposure, SRB): 32.3 nM
IC (TGI) (IGROV; 48 h, 48 hours exposure, SRB): 63.3 nM
CC50 (IGROV; 48 h, read-out: LC50): 3550 nM
TGI (HELA; HELA, 48 hours exposure, SRB): 4.85E−08 Molar
CC50 (HELA; HeLa, 48 h, read-out: LC50): 98 nM
GI50 (HELA; HELA, 48 hours exposure, SRB): 24 nM
GI50 (LNCAP; [5]): 13.1 nM
IC (TGI) (LNCAP; [5]): 27 nM
CC50 (LNCAP; LNCaP, 48 h, read-out: LC50): 54.8 nM
GI50 (A549; A549, 48 hours exposure, SRB): 26.7 nM
IC (TGI) (A549; A549, 48 hours exposure, SRB): 61.1 nM
CC50 (A549; read-out: LC50, A549, 48 hours exposure, SRB): 1290 nM
TGI (HELA-APL; [6]): 4.97E−08 Molar
GI50 (HELA-APL; 48 h): 29.1 nM
CC50 (HELA-APL; 48 h, read-out: LC50): 84.6 nM
GI50 (LOVO; [7]): 21.1 nM
IC (TGI) (LOVO; [7]): 38.8 nM
CC50 (LOVO; LoVo, 48 h, read-out: LC50): 71 nM
GI50 (IGROV-ET; [8]): 263 nM
IC (TGI) (IGROV-ET; [8]): 7470 nM
CC50 (IGROV-ET; 48 h, read-out: LC50): 11200 nM
GI50 (K562; [9]): 16.5 nM
IC (TGI) (K562; [9]): 46.2 nM
CC50 (K562; K562, 48 h, read-out: LC50): 114 nM
GI50 (MEL-28; [10]): 28.4 nM
IC (TGI) (MEL-28; [10]): 50.3 nM
CC50 (MEL-28; SK-MEL-28, 48 h, read-out: LC50): 89.3 nM

COc1c(C)cc2c(c1O)[C@@H]1C3[C@@H]4SC[C@]5(NCCc6c5[nH]c5ccccc65)C(=O)COC[C@@H](c5c6c(c(C)c(OC(=O)OC(C)(C)C)c54)OCO6)N3[C@@H](C#N)[C@H](C2)N1C (stereo partly drawn) [Compound 57]
GI50 (SK-BR3; [1]): 67.6 nM
IC (TGI) (SK-BR3; [1]): 313 nM
CC50 (SK-BR3; SK-BR-3, SK-BR3, 48 hours exposure, SRB, read-out: LC50 (the source's name)): 7990 nM
GI50 (LOVO-DOX; [2]): 487 nM
IC (TGI) (LOVO-DOX; [2]): 6700 nM
CC50 (LOVO-DOX; LOVO-DOX, 48 hours exposure, SRB, read-out: LC50 (the source's name)): 12200 nM
GI50 (DU145; [3]): 47.7 nM
IC (TGI) (DU145; [3]): 1840 nM
CC50 (DU145; DU-145, DU145, 48 hours exposure, SRB, read-out: LC50 (the source's name)): 12200 nM
GI50 (PANC-1; [4]): 113 nM
IC (TGI) (PANC-1; [4]): 662 nM
CC50 (PANC-1; PANC-1, 48 hours exposure, SRB, read-out: LC50 (the source's name)): 12200 nM
GI50 (HT29; HT29, 48 hours exposure, SRB): 165 nM
IC (TGI) (HT29; HT29, 48 hours exposure, SRB): 1410 nM
CC50 (HT29; HT29, 48 hours exposure, SRB, read-out: LC50 (the source's name)): 12200 nM
GI50 (IGROV; 48 h, 48 hours exposure, SRB): 71.8 nM
IC (TGI) (IGROV; 48 h, 48 hours exposure, SRB): 460 nM
CC50 (IGROV; 48 hours exposure, SRB, read-out: LC50 (the source's name)): 7430 nM
TGI (HELA; HELA, 48 hours exposure, SRB): 1.46E−07 Molar
GI50 (HELA; HELA, 48 hours exposure, SRB): 43.7 nM
CC50 (HELA; HELA, 48 hours exposure, SRB, read-out: LC50 (the source's name)): 652 nM
GI50 (LNCAP; [5]): 33.3 nM
IC (TGI) (LNCAP; [5]): 71.7 nM
CC50 (LNCAP; LNCAP, 48 hours exposure, SRB, read-out: LC50 (the source's name)): 23.2 nM
GI50 (A549; A549, 48 hours exposure, SRB): 103 nM
CC50 (A549; A549, 48 hours exposure, SRB, read-out: LC50 (the source's name)): 12200 nM
IC (TGI) (A549; A549, 48 hours exposure, SRB): 607 nM
TGI (HELA-APL; [6]): 2.03E−07 Molar
GI50 (HELA-APL; 48 h): 61.4 nM
CC50 (HELA-APL; HELA-APL, 48 hours exposure, SRB, read-out: LC50 (the source's name)): 850 nM
GI50 (LOVO; [7]): 73 nM
IC (TGI) (LOVO; [7]): 257 nM
CC50 (LOVO; LOVO, 48 hours exposure, SRB, read-out: LC50 (the source's name)): 905 nM
GI50 (IGROV-ET; [8]): 394 nM
IC (TGI) (IGROV-ET; [8]): 1150 nM
CC50 (IGROV-ET; IGROV-ET, 48 hours exposure, SRB, read-out: LC50 (the source's name)): 12200 nM
GI50 (K562; [9]): 47.7 nM
IC (TGI) (K562; [9]): 466 nM
CC50 (K562; K562, 48 hours exposure, SRB, read-out: LC50 (the source's name)): 12200 nM
GI50 (MEL-28; [10]): 64.7 nM
IC (TGI) (MEL-28; [10]): 209 nM
CC50 (MEL-28; SK-MEL-28, MEL-28, 48 hours exposure, SRB, read-out: LC50 (the source's name)): 662 nM
